The record followed here is patent EP0463456A1, “Phosphorus-containing HMG-CoA reductase inhibitors, new intermediates and their use” (E.R. SQUIBB & SONS, INC., priority 1990, dated 1992).

In this experiment the target is T1, freshly isolated rat hepatocyte suspensions (Rattus norvegicus, UniProt P51639).
T1 sequence (P51639 1-887): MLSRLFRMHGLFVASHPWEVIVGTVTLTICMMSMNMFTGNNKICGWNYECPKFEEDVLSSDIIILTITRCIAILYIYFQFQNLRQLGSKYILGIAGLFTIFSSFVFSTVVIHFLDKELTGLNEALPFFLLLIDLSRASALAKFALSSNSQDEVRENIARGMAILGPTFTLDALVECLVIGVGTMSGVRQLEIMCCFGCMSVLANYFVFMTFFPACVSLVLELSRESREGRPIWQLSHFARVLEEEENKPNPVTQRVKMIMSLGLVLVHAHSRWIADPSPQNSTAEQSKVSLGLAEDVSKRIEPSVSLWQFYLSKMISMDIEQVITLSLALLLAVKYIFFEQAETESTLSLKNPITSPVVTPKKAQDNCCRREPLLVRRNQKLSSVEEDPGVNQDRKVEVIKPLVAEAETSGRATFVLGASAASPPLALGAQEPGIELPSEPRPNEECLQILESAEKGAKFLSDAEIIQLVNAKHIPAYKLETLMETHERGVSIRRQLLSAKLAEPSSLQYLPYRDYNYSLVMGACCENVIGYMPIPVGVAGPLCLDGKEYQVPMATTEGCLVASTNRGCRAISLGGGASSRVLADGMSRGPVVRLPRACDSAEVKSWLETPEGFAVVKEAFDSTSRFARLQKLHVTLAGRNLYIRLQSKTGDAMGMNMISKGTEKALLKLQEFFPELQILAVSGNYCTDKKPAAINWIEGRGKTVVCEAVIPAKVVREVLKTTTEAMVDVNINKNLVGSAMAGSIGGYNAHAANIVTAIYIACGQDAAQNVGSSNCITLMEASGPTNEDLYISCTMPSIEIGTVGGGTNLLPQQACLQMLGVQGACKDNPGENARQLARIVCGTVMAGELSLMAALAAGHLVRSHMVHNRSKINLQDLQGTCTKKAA
Description: Cholesterol Synthesis in Freshly Isolated Rat Hepatocytes (14C-acetate incorporation into cholesterol). It counts as cell-based. The following applies: inhibition of 14C-acetate incorporation into cholesterol; 2.0 hours at 37° C; read-out: Hepatocytes 150. On the procedure: 2) Cholesterol Synthesis in Freshly Isolated Rat Hepatocytes […]
a. Isolation of Rat Hepatocytes
Sprague Dawley rats (180-220 grams) are anesthetized with Nembutol (50 mg/kg). The abdomen is opened and the first branch of the portal vein is tied closed. Heparin (100-200 units) is injected directly into the abdominal vena cava. A single closing suture is placed on the distal section of the portal vein, and the portal vein is canulated between the suture and the first branching vein. The liver is perfused at a rate of 20 ml/minute with prewarmed (37° C), oxygenated buffer A (HBSS without calcium or magnesium containing 0.5 mM EDTA) after severing the vena cava to allow drainage of the effluent. The liver is additionally perfused with 200 ml of prewarmed buffer B (HBSS containing 0.05% bacterial collagenase). […] Pelleted hepatocytes are washed once in Waymouth's medium, counted and assayed for viability by trypan blue exclusion. […]
Lipids are extracted essentially as described by Bligh, E. G. and W. J. Dyer, Can. […] Plates are scanned and counted using a BioScan automated scanning system. Radiolabel in the cholesterol peak (RF 0.28) is determined and expressed at total counts per peak and as a percent of the label in the total lipid extract. […]
Drug effects (% inhibition of cholesterol synthesis) are determined by comparing % of label in cholesterol for control and drug treated cultures. […]

As to “(S)-4-[[[4-(4-Fluorophenyl)-1,2-bis(1-methylethyl)-5-phenyl-1H-pyrrol-3-yl]-ethynyl]hydroxyphosphinyl]-3-hydroxybutanoic acid, dilithium salt [SQ 34,346]”, the IC50 amounted to 78 nM.
